Measured values from US7064122B2, “Pancreatic lipase inhibitor compounds, their synthesis and use” (OSI Pharmaceuticals, Inc., priority 2001, dated 2006).

Key:
[1] = molecular target: T1, type VI-S porcine pancreatic lipase (Sus scrofa, UniProt P00591); assay: Pancreatic lipase assay (pH-stat titration, triolein substrate); type: biochemical; set-up: Ymax: unit not given here; settings: for k / Ymax: 7.0 nM lipase, 700 nM inhibitor, pH 8.0; for k: k fitted for the 12.5 min after inhibitor addition, Y=Ymax*(1-exp(-k*X)); for inhibition at 0.7 µM: 12.5 min; for Ymax: Ymax of the fit Y=Ymax*(1-exp(-k*X))
T1 construct: purchased Sigma type VI-S (catalogue number not given)
T1 sequence (P00591 1-450): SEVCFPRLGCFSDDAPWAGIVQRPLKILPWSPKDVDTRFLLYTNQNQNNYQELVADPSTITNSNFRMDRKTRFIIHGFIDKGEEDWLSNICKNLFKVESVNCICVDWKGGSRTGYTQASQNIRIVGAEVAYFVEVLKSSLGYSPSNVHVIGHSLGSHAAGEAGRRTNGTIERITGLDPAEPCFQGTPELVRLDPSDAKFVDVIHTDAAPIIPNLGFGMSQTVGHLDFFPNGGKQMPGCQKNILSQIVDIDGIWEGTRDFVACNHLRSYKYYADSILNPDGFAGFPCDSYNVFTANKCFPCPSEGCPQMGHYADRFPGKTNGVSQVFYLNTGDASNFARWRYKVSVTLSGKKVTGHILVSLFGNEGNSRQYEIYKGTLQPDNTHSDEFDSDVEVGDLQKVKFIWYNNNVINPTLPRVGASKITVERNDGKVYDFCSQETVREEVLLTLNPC
Protocol: The use of a pancreatic lipase assay has been described in the literature (Hadvary, P. et al. Biochem. J. (1988) 256: 357-361; Hadvary, P. et al. Biochem. J. (1991) 266:2021-2027). Pancreatic lipase activity was measured using a 718 Stat Titrino (Brinkmann) programmed to maintain a pH of 8.0 using 0.1 N NaOH. The substrate mixture (pH 8) contained 1 mM taurochenodeoxycholate (Sigma), 9 mM taurodeoxycholate (Sigma), 0.1 mM cholesterol (Sigma), 1 mM phosphatidylcholine (Sigma), 1.5% BSA, 2 mM Tris base, 100 mM NaCl, 10 mM CaCl2, and 3% triolein (Sigma). The mixture (5 mL) was emulsified via sonication at room temperature, and added to the titration vessel with rapid stirring. The Stat Titrino was turned on and lipase (7.0 nM type VI-S porcine pancreatic lipase (Sigma) dissolved in PBS) was added to the vessel. After 10 min, inhibitor (700 nM dissolved in 100% DMSO) was added and the reaction continued for an additional 12.5 min. The k values were determined for the 12.5 min after the addition of the inhibitor using a one phase exponential association equation, Y=Ymax*(1−exp(−k*X)), k values for lipase alone were 0.0004±0.0001 sec. The k values for compounds disclosed herein are >0.0004±0.0001 sec.

Row | Compound | k [1] | further results
1 | CCCCCCCCNC(=O)c1sc2nc(NCCCCCCCC)oc(=O)c2c1C [Entry 18, 5-Methyl-2-octylamino-4-oxo-4H-thieno[2,3-d][1,3]oxazine-6-carboxylic acid octylamide] | 1.036 10-3.s-1 | inhibition at 0.7 µM [1]: 18%; melting point: 152 to 152.8 °C
2 | CCCCC(CCCC)Nc1nc2sc(C(=O)OCc3ccccc3)c(C)c2c(=O)o1 [Entry 59, 2-(1-Butyl-pentylamino)-5-methyl-4-oxo-4H-thieno[2,3-d][1,3]oxazine-6-carboxylic acid benzyl ester] | 0.222 10-3.s-1 | melting point: 136 to 138 °C
3 | CCCCCCCCNc1nc2sc(C(=O)N3CCC(Cc4ccccc4)CC3)c(C)c2c(=O)o1 [Entry 43, 6-(4-Benzyl-piperidine-1-carbonyl)-5-methyl-2-octylamino-thieno[2,3-d][1,3]oxazin-4-one] | 0.009 10-3.s-1 | melting point: 100 to 106 °C
4 | CCCCCCCCNc1nc2sc(C(=O)NCC(=O)OCc3ccccc3)c(C)c2c(=O)o1 [Entry 48, [(5-Methyl-2-octylamino-4-oxo-4H-thieno[2,3-d][1,3]oxazine-6-carbonyl)-amino]-acetic acid benzyl ester] | 0.440 10-3.s-1 | melting point: 147 to 149 °C
5 | CCCCCCCCCCc1cc2c(=O)oc(OCCOC)nc2s1 [Entry 96, 6-Decyl-2-(2-methoxy-ethoxy)-thieno[2,3-d][1,3]oxazin-4-one] |  | melting point: 38 to 41 °C
6 | CCCCCCCCc1cc2c(=O)oc(OCCCCCC)nc2s1 [Entry 94] |  | inhibition at 0.7 µM [1]: 83%
7 | CCCCCCCCCCCc1nc2sc(CCCCCCC)cc2c(=O)o1 [Entry 67, 6-Heptyl-2-undecyl-thieno[2,3-d][1,3]oxazin-4-one] | 0.064 10-3.s-1 | Ymax [1]: 10.973
8 | CCCCCCCCOc1nc2scc(C)c2c(=O)o1 [Entry 23, 5-Methyl-2-octyloxy-thieno[2,3-d][1,3]oxazin-4-one] | 0.893 10-3.s-1 | 
9 | CCCCCCCCCCc1cc2c(=O)oc(Oc3ccc(CCCC)cc3)nc2s1 [Entry 102, 2-(4-Butyl-phenoxy)-6-decyl-thieno[2,3-d][1,3]oxazin-4-one] |  | melting point: 55 to 58 °C
10 | CCCCCCCCc1cc2c(=O)oc(OCCCC)nc2s1 [Entry 95] |  | inhibition at 0.7 µM [1]: 60.3%
11 | CCCCCCCCNc1nc2sc(C(=O)N3CCN(CCN4CCCCC4)CC3)c(C)c2c(=O)o1 [Entry 53, 5-Methyl-2-octylamino-6-[4-(2-piperidin-1-yl-ethyl)-piperazine-1-carbonyl]-thieno[2,3-d][1,3]oxazin-4-one] | 0.166 10-3.s-1 | 
12 | CCCCCCCOc1nc2sc(C(=O)OCc3ccccc3)c(C)c2c(=O)o1 [Entry 8, 2-Heptyloxy-5-methyl-4-oxo-4H-thieno[2,3-d][1,3]oxazine-6-carboxylic acid benzyl ester] | 1.052 10-3.s-1 | 
13 | CCCCCCCCCCCCCCCCNC(=O)c1sc2nc(NCCCCCCCC)oc(=O)c2c1C [Entry 30, 5-Methyl-2-octylamino-4-oxo-4H-thieno[2,3-d][1,3]oxazine-6-carboxylic acid hexadecylamide] | 0.433 10-3.s-1 | 
14 | CCCCCCCCNc1nc2sc(C(=O)NCCOC)c(C)c2c(=O)o1 [Entry 72, 5-Methyl-2-octylamino-4-oxo-4H-thieno(2,3-d)(1,3)oxazine-6-carboxylic acid (2-methoxy-ethyl)-amide] | 1.102 10-3.s-1 | Ymax [1]: 0.185
15 | CCCCCCCCNc1nc2sc(C(=O)NCC)c(C)c2c(=O)o1 [Entry 33, 5-Methyl-2-octylamino-4-oxo-4H-thieno[2,3-d][1,3]oxazine-6-carboxylic acid ethylamide] | 0.547 10-3.s-1 | 
16 | CCCCCCCCOC(=O)c1sc2nc(Nc3ccc(Oc4ccccc4)cc3)oc(=O)c2c1C [Entry 19, 5-Methyl-4-oxo-2-(4-phenoxy-phenylamino)-4H-thieno[2,3-d][1,3]oxazine-6-carboxylic acid octyl ester] | 0.981 10-3.s-1 | 
17 | CCCCCCCCNc1nc2sc(C(=O)NCC(C)C)c(C)c2c(=O)o1 [Entry 54, 5-Methyl-2-octylamino-4-oxo-4H-thieno[2,3-d][1,3]oxazine-6-carboxylic acid isobutyl-amide] | 0.702 10-3.s-1 | 
18 | CCCCCCCCNc1nc2sc(C(=O)NCCc3cccnc3)c(C)c2c(=O)o1 [Entry 50, 5-Methyl-2-octylamino-4-oxo-4H-thieno[2,3-d][1,3]oxazine-6-carboxylic acid (2-pyridin-3-yl-ethyl)-amide] | 0.719 10-3.s-1 | 
19 | CCCCCCC(C)Oc1nc2sc(C(=O)OCc3ccccc3)c(C)c2c(=O)o1 (stereo not drawn) [Entry 89, 5-Methyl-2-(1-methylheptyloxy)-4-oxo-4H-thieno[2,3-d][1,3]oxazine-6-carboxylic acid benzyl ester] |  | inhibition at 0.7 µM [1]: -14.1%
20 | CCCCCCCCCCc1cc2c(=O)oc(OC(C)CCCCCC)nc2s1 (stereo not drawn) [Entry 90, 6-Decyl-2-(1-methylheptyloxy)thieno[2,3-d][1,3]oxazin-4-one] |  | inhibition at 0.7 µM [1]: 15%
21 | 2-Hexadecyloxy-5-methyl-4-oxo-4H-thieno[2,3-d][1,3]oxazine-6-carboxylic acid benzyl ester [Entry 7] | 0.779 10-3.s-1 | 

More lines, main results first:

Row | k [1] | Compound | further results
22 | 0.922 10-3.s-1 | CCCCCCCCNc1nc2sc(C(=O)OCCCCCCCC)c(C)c2c(=O)o1 [Entry 20, 5-Methyl-2-octylamino-4-oxo-4H-thieno[2,3-d][1,3]oxazine-6-carboxylic acid octyl ester] | 
23 | 0.754 10-3.s-1 | CCCCCCCCNc1nc2sc(C(=O)NCc3ccncc3)c(C)c2c(=O)o1 [Entry 55, 5-Methyl-2-octylamino-4-oxo-4H-thieno[2,3-d][1,3]oxazine-6-carboxylic acid (pyridin-4-ylmethyl)-amide] | 
24 | 0.794 10-3.s-1 | CCCCCCCCNc1nc2sc(C(=O)NCCCOC)c(C)c2c(=O)o1 [Entry 73, 5-Methyl-2-octylamino-4-oxo-4H-thieno(2,3-d)(1,3)oxazine-6-carboxylic acid (3-methoxy-propyl)-amide] | Ymax [1]: 1.594
25 | 5.825 10-3.s-1 | CCCCCCCCOc1nc2sc(CCCCCCC)cc2c(=O)o1 [Entry 68, 6-Heptyl-2-octyloxy-thieno[2,3-d][1,3]oxazin-4-one] | Ymax [1]: 0.020; inhibition at 0.7 µM [1]: 78.9%
26 | 0.459 10-3.s-1 | CCCCCCCNC(=O)N(CCCCCCC)c1nc2sc(C(=O)OCc3ccccc3)c(C)c2c(=O)o1 [Entry 14, 2-(1,3-Diheptyl-ureido)-5-methyl-4-oxo-4H-thieno[2,3-d][1,3]oxazine-6-carboxylic acid benzyl ester] | 
27 | 0.649 10-3.s-1 | CCCCCCCCOc1nc2sc(C(=O)OCc3ccccc3)c(C)c2c(=O)o1 [Entry 5, 5-Methyl-2-octyloxy-4-oxo-4H-thieno[2,3-d][1,3]oxazine-6-carboxylic acid benzyl ester] | 
28 | 0.114 10-3.s-1 | CCCCCCCCNc1nc2sc(C(=O)OCc3ccccc3)c(C)c2c(=O)s1 [Entry 56, 5-Methyl-2-octylamino-4-oxo-4H-thieno[2,3-d][1,3]thiazine-6-carboxylic acid benzyl ester] | 
29 | 0.013 10-3.s-1 | CCCCCCCCN(CCCCCCCC)c1nc2sc(C(=O)OCc3ccccc3)c(C)c2c(=O)o1 [Entry 60, 2-Dioctylamino-5-methyl-4-oxo-4H-thieno[2,3-d][1,3]oxazine-6-carboxylic acid benzyl ester] | 
